Each structure is given as a SMILES string. Where “and” joins values, the source holds several entries; their conditions need not be identical. Equal values may be shown once.

This test relates to PC-12 cells. Briefly: Ischaemia (oxygen-glucose deprivation)-induced cell death in NGF-differentiated PC-12 cells, Trypan Blue exclusion. The test is classed as cell-based. The note with it: for decrease in cell death: vs. ischemia alone. Here is the method: PC-12 cells were maintained on flasks coated with Collagen typel in PC-12 media with the following composition; RPMI 1640 without L-glutamine with 2 mM L-glutamine, 10 mM HEPES, 1 mM Sodium Pyruvate, additional glucose to give a final concentration of 4.5 g/L (RPMI normally has 2 g/L), 10% heat inactivated horse serum, 5% foetal calf serum and 50 units of penicillin/streptomycin. Media was changed every 2 days.
Confluent cultures of PC-12 cells were differentiated by culturing for 7 days in PC-12 medium without serum but with 50 ng/mlNGF (PC-12 NGF media). The cells were harvested, washed, counted and 1×10^5 PC-12 cells/well were plated overnight in a micro titre plate in glucose free PC-12 NGF medium. The medium was then changed to glucose-free PC-12 NGF medium containing the compounds to be tested and the plates left under normoxic conditions for 30 minutes.
During this stage, the media and test substances for the anoxic exposure were placed in a chamber and de-oxygenated with 95% N2/5% CO2. The media in the plates was changed with the de-oxygenated media and the plates then placed in an anaerobic chamber gassed with 95% N2 5% CO2 for 10 minutes before being sealed and incubated at 37° C. overnight (18 hours). For normoxia controls, the cells were treated identically to ischemic treatments except that all incubations were in 5% CO2/95% air.
Viability was determined using Trypan Blue exclusion.

With `COc1ccc2c(c1)c(CC(=O)O)c(C)n2C(=O)c1ccc(Cl)cc1` [Indomethacin], under “10 μM indomethacin with 1 μM and 10 μM 7β-OH-EPIA”, the “antagonism of the protective effect of 7β-OH-EPIA” value is on record as “fully antagonised”. Besides, the “decrease in cell death” value is reported as “no direct effect” (10 μM) and 29% (100 μM).
For `C[C@]12N[C@H](Cc3ccccc31)c1ccccc12` [MK801], the “decrease in cell death” value (10 μM) was 62% and 42%.

For the origin of these results see patent US20130023504A1, “Modulation of Prostaglandin/Cyclooxygenase Metabolic Pathways” (HUNTER-FLEMING LIMITED, priority 2006, published 2013).
